Measurements: US7999132B2, “Anthranilic acid derivative or salt thereof” (Toyama Chemical Co., Ltd., priority 2004, dated 2011)

tested on: MMP-13; test: MMP-13 Production Inhibition Test; assay type: cell-based, human; conditions: Homo sapiens; 30 μmol/L; SW1353 cells stimulated with IL-1β 10 ng/mL; MMP-13 in culture supernatant by ELISA 16 hours after stimulation; read-out: Inhibition rate (%) at 30 μmol/L
Method: MMP-13 Production Inhibition Test
6.8×10^3 human cartilage derived cell line SW1353 cells were suspended in 100 μL of Dulbecco modified Eagle's medium supplemented with 10% fetal calf serum, plated on 96-well plates and cultured for 3 days. After the culture medium was changed to Dulbecco modified Eagle's medium containing 0.2% lactalbumin hydrolysate and the cells were cultured for 6 hours, […] were added and then IL-1β was added to obtain the final concentration of 10 ng/mL 1 hour later. 16 hours after the stimulation, supernatant was collected and the amount of MMP-13 in the culture supernatant was determined with an ELISA kit (Amersham). The inhibition rate was calculated from the amount of MMP-13 in the presence of a test compound assuming that the amount of MMP-13 was 100% in the absence of the test compound.

SMILES | inhibition at 30 µM [%]
COc1ccc(-c2ccc(C(=O)O)c(NC(=O)c3ccccc3)c2)cc1 [Example 22, 2-(Benzamido)-4-(4-methoxyphenyl)benzoic acid] | 81
O=C(Nc1cc(Oc2ccccc2)ccc1C(=O)O)c1ccc(F)cc1 [Example 89, 2-(4-Fluorobenzamido)-4-phenoxybenzoic acid] | 94
O=C(Nc1cc(-c2cc(Cl)ccc2Cl)ccc1C(=O)O)c1ccccc1 [Example 425, 2-(Benzamido)-4-(2,5-dichlorophenyl)benzoic acid] | 99
Cc1cccc(C(=O)Nc2cc(Oc3ccccc3)ccc2C(=O)O)c1 [Example 325, 2-(3-Methylbenzamido)-4-phenoxybenzoic acid] | 91
Cc1cccc(C(=O)Nc2cc(CCc3ccccc3)ccc2C(=O)O)c1C [Example 262, 2-(2,3-Dimethylbenzamido)-4-phenethylbenzoic acid] | 93
O=C(O)c1ccc(Oc2ccccc2)cc1NC(=O)C1CCCCC1 [Example 85, 2-(Cyclohexanecarboxamido)-4-phenoxybenzoic acid] | 60
O=C(Nc1cc(CCc2ccccc2)ccc1C(=O)O)c1ccc(Cl)c(Cl)c1 [Example 431, 2-(3,4-Dichlorobenzamido)-4-phenethylbenzoic acid] | 98
O=C(Nc1cc(/C=C/c2cccc3nsnc23)ccc1C(=O)O)c1ccccc1 [Example 146, 2-(Benzamido)-4-((E)-2-(2,1,3-benzothiadiazol-4-yl)vinyl)benzoic acid] | 97
CC(=O)c1cccc(C(=O)Nc2cc(-c3ccccc3)ccc2C(=O)O)c1 [Example 514, 2-(3-Acetylbenzamido)-4-phenylbenzoic acid] | 91
O=C(O)c1ccc(CCc2ccccc2)cc1NC(=O)c1ccccc1C(F)(F)F [Example 255, 4-Phenethyl-2-(2-(trifluoromethyl)benzamido)benzoic acid] | 91
O=C(C=Cc1ccccc1)Nc1cc(Oc2ccccc2)ccc1C(=O)O [Example 91, 2-(Cinnamamido)-4-phenoxybenzoic acid] | 95
O=C(Nc1cc(CCc2ccccc2)ccc1C(=O)O)c1ccc(N2CCCCC2)nc1 [Example 525, 4-phenethyl-2-(6-(piperidin-1-yl)pyridine-3-carboxamido)benzoic acid] | 87
O=C(Nc1cc(Oc2ccccc2)ccc1C(=O)O)c1nc2ccccc2s1 [Example 97, 2-(Benzothiazole-2-carboxamido)-4-phenoxybenzoic acid] | 97
O=C(Nc1cc(OCc2ccccc2)ccc1C(=O)O)c1ccccc1 [Example 99, 2-(benzamido)-4-(benzyloxy)benzoic acid] | 71
O=C(Nc1cc(-c2ccccc2)ccc1C(=O)O)c1ccc(-n2cccc2)nc1 [Example 509, 4-Phenyl-2-(6-(1H-pyrrol-1-yl)pyridine-3-carboxamido) benzoic acid] | 77
O=C(/C=C/c1ccc(Cl)c(Cl)c1)Nc1cc(Oc2ccccc2)ccc1C(=O)O [Example 382, 2-((E)-3-(3,4-Dichlorophenyl)acrylamido)-4-phenoxybenzoic acid] | 98
O=C(Nc1cc(-c2ccccc2)ccc1C(=O)O)c1cccs1 [Example 301, 4-Phenyl-2-(thiophene-2-carboxamido)benzoic acid] | 80
O=C(Nc1cc(Oc2ccccc2)ccc1C(=O)O)c1ccc2c(c1)OCO2 [Example 80, 2-(Benzo[1,3]dioxole-5-carboxamido)-4-phenoxybenzoic acid] | 92
O=C(Nc1cc(-c2ccc3c(c2)OCCO3)ccc1C(=O)O)c1ccccc1 [Example 15, 2-(Benzamido)-4-(2,3-dihydrobenzo[1,4]dioxin-6-yl)benzoic acid] | 88
O=C(Nc1cc(-c2ccccc2)ccc1C(=O)O)c1cccc(-c2ccccc2)c1 [Example 512, 2-(Biphenyl-3-carboxamido)-4-phenylbenzoic acid] | 99
